Measurements published in patent US10329276B2, “Salt and crystalline forms thereof of a drug” (AbbVie Inc., priority 2004, dated 2019).
In brackets after ≈: the same amount, converted by molar mass.

Experiments:
Format in all cases: physicochemical
[1] = Solubility of the trihydrate salt in different base solutions at 25° C.
Procedure: The solubility of D-glucitol, 1-deoxy-1-(methylamino)-, 1-(6-amino-3,5-difluoropyridin-2-yl)-8-chloro-6-fluoro-1,4-dihydro-7-(3-hydroxyazetidin-1-yl)-4-oxo-3-quinolinecarboxylate trihydrate (salt) in different base solutions at 25° C. is shown in TABLE 3.

[2] = Solubility in different buffered solutions at 25° C.
Procedure: Solubilities of 1-(6-amino-3,5-difluoropyridin-2-yl)-8-chloro-6-fluoro-1,4-dihydro-7-(3-hydroxyazetidin-1-yl)-4-oxo-3-quinolinecarboxylic acid in different buffered solutions at 25° C. are shown in TABLE 1.

[3] = Solubility in different base solutions at 25° C. (free acid); conditions: for solubility: aqueous buffer
Procedure: Solubilities of 1-(6-amino-3,5-difluoropyridin-2-yl)-8-chloro-6-fluoro-1,4-dihydro-7-(3-hydroxyazetidin-1-yl)-4-oxo-3-quinolinecarboxylic acid in different base solutions at 25° C. are shown in TABLE 2.

[4] = 0.01M meglumine, final pH 9.00, 25° C.
[5] = 0.1M meglumine, final pH 9.83, 25° C.
[6] = 1M meglumine, final pH 10.85, 25° C.

CNC[C@H](O)[C@@H](O)[C@H](O)[C@H](O)CO.Nc1nc(-n2cc(C(=O)O)c(=O)c3cc(F)c(N4CC(O)C4)c(Cl)c32)c(F)cc1F.O.O.O [D-glucitol, 1-deoxy-1-(methylamino)-, 1-(6-amino-3,5-difluoropyridin-2-yl)-8-chloro-6-fluoro-1,4-dihydro-7-(3-hydroxyazetidin-1-yl)-4-oxo-3-quinolinecarboxylate trihydrate (salt)]
Ksp (M^2) [1, 4]: 4.71 × 10^−3 M^2
solubility [1, 4]: 32400 µg/mL
Ksp (M^2) [1, 5]: 4.16 × 10^−3 M^2
solubility [1, 5]: 32200 µg/mL
Ksp (M^2) [1, 6]: 3.34 × 10^−3 M^2
solubility [1, 6]: 30800 µg/mL
Ksp (M^2) ([1]; water, final pH 8.78, 25° C.): 5.00 × 10^−3 M^2
solubility ([1]; water, final pH 8.78, 25° C.): 33900 µg/mL

Nc1nc(-n2cc(C(=O)O)c(=O)c3cc(F)c(N4CC(O)C4)c(Cl)c32)c(F)cc1F [1-(6-amino-3,5-difluoropyridin-2-yl)-8-chloro-6-fluoro-1,4-dihydro-7-(3-hydroxyazetidin-1-yl)-4-oxo-3-quinolinecarboxylic acid]
solubility ([2]; 0.1 HCl (printed 0.1 HC1), simulated gastric fluid, 0.1 HC1, final pH 0.8, 25° C.): 3.26 µg/mL (≈ 0.0074 mM)
solubility ([2]; aqueous buffer, 0.1M NaOH, final pH 8.4, 25° C.): 3400 µg/mL (≈ 7.71 mM)
solubility ([2]; aqueous buffer, Phosphate Buffer 8.0, final pH 7.8, 25° C.): 651 µg/mL (≈ 1.48 mM)
solubility ([2]; aqueous buffer, citrate buffer 4.0, final pH 4.2, 25° C.): 3.44 µg/mL (≈ 0.0078 mM)
solubility ([2]; aqueous buffer, citrate buffer 5.0, final pH 5.1, 25° C.): 3.33 µg/mL (≈ 0.00756 mM)
solubility ([2]; aqueous buffer, glycine buffer 9.0, final pH 8.2, 25° C.): 2490 µg/mL (≈ 5.65 mM)
solubility ([2]; aqueous buffer, phosphate buffer 6.8, final pH 6.8, 25° C.): 66.8 µg/mL (≈ 0.152 mM)
solubility ([2]; aqueous buffer, phosphate buffer 7.4, final pH 7.4, 25° C.): 283 µg/mL (≈ 0.642 mM)
solubility ([2]; organic solvent or mixture, ethanol, 25° C.): 867 µg/mL (≈ 1.97 mM)
solubility ([2]; saline or isotonic, saline, final pH 5.8-5.9, 25° C.): 13 µg/mL (≈ 0.0295 mM)
Ksp (M^2) ([3]; 0.5M KOH): 1.69 × 10^−2 M^2
Swater ([3]; 0.5M KOH): 57.4 mg/mL
Ksp (M^2) ([3]; 1M L-arginine): 4.81 × 10^−4 M^2
Swater ([3]; 1M L-arginine): 9.67 mg/mL
Ksp (M^2) ([3]; 1M NaOH): 1.66 × 10^−2 M^2
Swater ([3]; 1M NaOH): 56.8 mg/mL
Ksp (M^2) ([3]; 1.0M TRIS): 1.619 × 10^−4 M^2
Swater ([3]; 1.0M TRIS): 4.8 mg/mL
Ksp (M^2) ([3]; 1M ethanolamine): 2.04 × 10^−3 M^2
Swater ([3]; 1M ethanolamine): 19.9 mg/mL
Ksp (M^2) ([3]; 1M meglumin): 2.81 × 10^−3 M^2
Swater ([3]; 1M meglumin): 23.6 mg/mL
solubility ([3]; 0.5M KOH): 24400 µg/mL (≈ 55.4 mM)
solubility ([3]; 1M L-arginine): 11200 µg/mL (≈ 25.4 mM)
solubility ([3]; 1M NaOH): 8330 µg/mL (≈ 18.9 mM)
solubility ([3]; 1.0M TRIS): 5760 µg/mL (≈ 13.1 mM)
solubility ([3]; 1M ethanolamine): 24900 µg/mL (≈ 56.5 mM)
solubility ([3]; 1M meglumin): 32100 µg/mL (≈ 72.8 mM)
